Results: patent publication US8524740B2, “Synthesis and anticancer activity of aryl and heteroaryl-quinolin derivatives” (Tairx, Inc., priority 2010, dated 2013)
Values belong to the compound of their own block, whether it stands above or below them.

Columns and labels:
[1] = test system: HL-60; assay: MTT assay, HL-60 cells; type: cell-based; conditions: Homo sapiens
Method: (§1) MTT (3-(4,5-Dimethylthiazol-2-yl)-2,5-diphenyltetrazolium bromide) assays.^21,22 HL-60, HCT-116, Hep 3B, H460, Detroit 551 and HT29/FuR cells were treated with tested compounds for the indicated periods. After treatment, cells were washed once with PBS and incubated with MTT (Sigma, St. Louis, Mo., USA) for 2 h. The formazan precipitate was dissolved in 150 μL of DMSO, and the absorbance was measured with an ELISA reader at 570 nm.
(§2) HL-60, Hep 3B, H460, MES-SA, MES-SAID x5 and Detroit 551 cells were treated with vehicle or test compounds for 48 h. The cell growth rate was determined by MTT (3-(4,5-dimethyl-thiazol-2-yl)-2,5-diphenyltetrazoliun bromide) reduction assay.
as §1, with “assays.” for “assays.^21,22”, “HCT-116, A549,” for “HCT-116,”, “KB, Kb-VIN” for “H460, Detroit 551”, “DU145” for “HT29/FuR”
as §1, with “assays.” for “assays.^21,22”, “HL-60,” for “HL-60, HCT-116,”, “H460, A498, Colo205 and” for “H460,”, “551” for “551 and HT29/FuR”

[2] = test system: Hep3B; assay: MTT assay, Hep 3B cells; type: cell-based; conditions: Homo sapiens
Method: as §1, §2
as §1, with “assays.” for “assays.^21,22”, “HCT-116, A549,” for “HCT-116,”, “KB, Kb-VIN” for “H460, Detroit 551”, “DU145” for “HT29/FuR”
as §1, with “assays.” for “assays.^21,22”, “HL-60,” for “HL-60, HCT-116,”, “H460, A498, Colo205 and” for “H460,”, “551” for “551 and HT29/FuR”

[3] = test system: H460; assay: MTT assay, H460 cells; type: cell-based; conditions: Homo sapiens, NCI-H460
Method: as §1, §2
as §1, with “assays.” for “assays.^21,22”, “HL-60,” for “HL-60, HCT-116,”, “H460, A498, Colo205 and” for “H460,”, “551” for “551 and HT29/FuR”

[4] = test system: Detroit 551; assay: MTT assay, Detroit 551 normal human cells; type: cell-based; conditions: Detroit 551
Method: as §1, §2
as §1, with “assays.” for “assays.^21,22”, “HL-60,” for “HL-60, HCT-116,”, “H460, A498, Colo205 and” for “H460,”, “551” for “551 and HT29/FuR”

[5] = test system: MES-SA; assay: MTT assay, MES-SA cells; type: cell-based; conditions: Homo sapiens, 48 hrs
Method: as §2

[6] = test system: MES-SA/Dx5; assay: MTT assay, MES-SA/Dx5 cells; type: cell-based, human; conditions: for IC50: Homo sapiens, MES-SA/Dx5, 48 hrs; for Ratio Of SA/Dx5: IC50 MES-SA/Dx5 over IC50 MES-SA
Method: as §2

[7] = test system: HCT116; assay: MTT assay, HCT-116 cells; type: cell-based; conditions: Homo sapiens, Table 1, 48 h
Method: as §1
as §1, with “assays.” for “assays.^21,22”, “HCT-116, A549,” for “HCT-116,”, “KB, Kb-VIN” for “H460, Detroit 551”, “DU145” for “HT29/FuR”

[8] = test system: HT29/5FuR; assay: MTT assay, HT29/5FuR cells; type: cell-based; conditions: Homo sapiens, HT-29, Table 1, 48 h
Method: as §1

[9] = test system: HL-60, HCT-116, Hep3B, H-460; assay: Cytotoxicity screen (MTT) against human cancer cell lines, results in words; type: cell-based; conditions: comparison within sub-series or with CHM-2133
Method: as §1, §2

[10] = Homo sapiens, Table 3, B-2 series, 48 hrs
[11] = Homo sapiens, Table 2, B-1 series, 48 hrs
[12] = Table 1, 48 h, MTT, normal human cell

Structure (SMILES): O=C1CC(c2cccc3c2OCO3)=Nc2ccc(N3CCCC3)cc21 [Compound 125, 2-(Benzo[d][1,3]-dioxol-4-yl)-6-pyrrolidinoquinolin-4-one]
IC50 ([1]; Table 3, B-2 series, 48 hrs): 80 nM
IC50 ([2]; Table 3, B-2 series, 48 hrs): 0.2 µM
IC50 ([3]; Table 3, B-2 series, 48 hrs): 0.2 µM
IC50 [4, 10]: > 2.5 µM
IC50 ([5]; Table 3, B-2 series): 100 nM
IC50 ([6]; Table 3, B-2 series): 0.183 µM
Ratio Of SA/Dx5 ([6]; Table 3, B-2 series): 1.83
melting point: 330 to 332 °C

Structure (SMILES): O=C1CC(c2cccc3c2OCO3)=Nc2ccc(N3CCOCC3)cc21 [Compound 124, 2-(Benzo[d][1,3]-dioxol-4-yl)-6-morpholinoquinolin-4-one]
IC50 ([1]; Table 2, B-1 series, 48 hrs): 720 nM
IC50 ([2]; Table 2, B-1 series, 48 hrs): 1.5 µM
IC50 ([3]; Table 2, B-1 series, 48 hrs): 2.13 µM
IC50 [4, 11]: > 2.5 µM
IC50 ([5]; Table 2, B-1 series): 2350 nM
IC50 ([6]; Table 2, B-1 series): 2.1 µM
Ratio Of SA/Dx5 ([6]; Table 2, B-1 series): 0.89
melting point: 350 to 352 °C

Structure (SMILES): COc1cc2c(cc1O)N=C(c1ccc(F)cc1)CC2=O [Compound 45, 2-(4-Fluorophenyl)-7-hydroxy-6-methoxyquinolin-4-one]
IC50 ([1]; Table 1, 48 h, MTT): 38200 nM
IC50 [7]: > 100 µM
IC50 ([2]; Table 1, 48 h, MTT): > 100 µM
IC50 ([3]; Table 1, 48 h, MTT): > 100 µM
IC50 [4, 12]: > 100 µM
IC50 [8]: 370 nM
cytotoxicity (in words) [9]: weaker
melting point: 352 to 354 °C

Structure (SMILES): O=C1CC(c2cccc(O)c2)=Nc2ccc(N3CCOCC3)cc21 [Compound 137, 2-(3-Hydroxyphenyl)-6-morpholinoquinolin-4-one]
IC50 ([1]; Table 2, B-1 series, 48 hrs): 230 nM
IC50 ([2]; Table 2, B-1 series, 48 hrs): 11.5 µM
IC50 ([3]; Table 2, B-1 series, 48 hrs): 24.8 µM
IC50 [4, 11]: 10 µM
IC50 ([5]; Table 2, B-1 series): 3610 nM
IC50 ([6]; Table 2, B-1 series): 7.3 µM
Ratio Of SA/Dx5 ([6]; Table 2, B-1 series): 2.02
melting point: 357 to 360 °C

Structure (SMILES): O=C1CC(c2ccc(F)cc2)=Nc2ccc3c(c21)OCO3 [Compound 21, 2-(4-Fluorophenyl)-5,6-methylenedioxyquinolin-4-one]
IC50 ([1]; Table 1, 48 h, MTT): > 10000 nM
IC50 [7]: > 10 µM
IC50 ([2]; Table 1, 48 h, MTT): > 10 µM
IC50 ([3]; Table 1, 48 h, MTT): > 10 µM
IC50 [4, 12]: > 10 µM
IC50 [8]: 530 nM
cytotoxicity (in words) [9]: weaker
melting point: 286 to 288 °C

Structure (SMILES): COc1cc2c(cc1O)N=C(c1ccccc1F)CC2=O [Compound 43, 2-(2-Fluorophenyl)-7-hydroxy-6-methoxyquinolin-4-one]
IC50 ([1]; Table 1, 48 h, MTT): 1300 nM
IC50 [7]: 5.8 µM
IC50 ([2]; Table 1, 48 h, MTT): 5.3 µM
IC50 ([3]; Table 1, 48 h, MTT): 4.4 µM
IC50 [4, 12]: 29.7 µM
IC50 [8]: 290 nM
cytotoxicity (in words) [9]: greater cytotoxicity
melting point: 277 to 279 °C

The next lines start with results.

IC50 ([1]; Table 3, B-2 series, 48 hrs): 530 nM
IC50 ([2]; Table 3, B-2 series, 48 hrs): 1.2 µM
IC50 ([3]; Table 3, B-2 series, 48 hrs): 1.78 µM
melting point: 258 to 260 °C
Structure (SMILES): COc1cccc(C2=Nc3ccc(N4CCCC4)cc3C(=O)C2)c1OC [Compound 127, 2-(2,3-Dimethoxyphenyl)-6-pyrrolidinoquinolin-4-one]
IC50 [4, 10]: > 20 µM
IC50 ([5]; Table 3, B-2 series): 802 nM
IC50 ([6]; Table 3, B-2 series): 1.71 µM
Ratio Of SA/Dx5 ([6]; Table 3, B-2 series): 2.13

IC50 ([1]; Table 3, B-2 series, 48 hrs): 1620 nM
IC50 ([2]; Table 3, B-2 series, 48 hrs): 7.38 µM
IC50 ([3]; Table 3, B-2 series, 48 hrs): 6.5 µM
Structure (SMILES): O=C1CC(c2cc(O)ccc2O)=Nc2ccc(N3CCOCC3)cc21 [Compound 144a, 2-(2,5-dihydroxyphenyl)-6-morpholinoquinolin-4-one]
IC50 [4, 10]: 9.1 µM
IC50 ([5]; Table 3, B-2 series): 3690 nM
IC50 ([6]; Table 3, B-2 series): 25 µM
Ratio Of SA/Dx5 ([6]; Table 3, B-2 series): 6.78

IC50 ([1]; Table 2, B-1 series, 48 hrs): 2100 nM
IC50 ([2]; Table 2, B-1 series, 48 hrs): 8.78 µM
IC50 ([3]; Table 2, B-1 series, 48 hrs): 8.3 µM
Structure (SMILES): O=C1CC(c2ccccc2O)=Nc2ccc(N3CCOCC3)cc21 [Compound 134, 2-(2-Hydroxyphenyl)-6-morpholinoquinolin-4-one]
IC50 [4, 11]: > 100 µM
IC50 ([5]; Table 2, B-1 series): 2380 nM
IC50 ([6]; Table 2, B-1 series): 10.4 µM
Ratio Of SA/Dx5 ([6]; Table 2, B-1 series): 4.38

IC50 ([1]; Table 2, B-1 series, 48 hrs): 1200 nM
IC50 ([2]; Table 2, B-1 series, 48 hrs): 3.11 µM
IC50 ([3]; Table 2, B-1 series, 48 hrs): 3.47 µM
Structure (SMILES): COc1ccc(OC)c(C2=Nc3ccc(N4CCOCC4)cc3C(=O)C2)c1 [Compound 128, 2-(2,5-Dimethoxyphenyl)-6-morpholinoquinolin-4-one]
IC50 [4, 11]: 16.6 µM
IC50 ([5]; Table 2, B-1 series): 2030 nM
IC50 ([6]; Table 2, B-1 series): 8.21 µM
Ratio Of SA/Dx5 ([6]; Table 2, B-1 series): 4.04

IC50 ([1]; Table 2, B-1 series, 48 hrs): 2480 nM
IC50 ([3]; Table 2, B-1 series, 48 hrs): 7.36 µM
melting point: 262 to 264 °C
Structure (SMILES): COc1ccccc1C1=Nc2ccc(N3CCOCC3)cc2C(=O)C1 [Compound 130, 2-(2-Methoxyphenyl)-6-morpholinoquinolin-4-one]
IC50 [4, 11]: > 20 µM
IC50 ([5]; Table 2, B-1 series): 2500 nM
IC50 ([6]; Table 2, B-1 series): 9.71 µM
Ratio Of SA/Dx5 ([6]; Table 2, B-1 series): 3.88
